System: CYPRO (Cyperus rotundus, purple nutsedge)
Assay: In-water applied mixtures, transplanted paddy rice, greenhouse
Format: in vivo, Cyperus rotundus L.
Conditions: 19 DAA
Protocol: Weed seeds or nutlets of the desired test plant species were planted in puddled soil (mud) prepared by mixing a shredded, non-sterilized mineral soil (50.5 percent silt, 25.5 percent clay, and 24 percent sand, with a pH of about 7.6 and an organic matter content of about 2.9 percent) and water at a 1:1 volumetric ratio. The prepared mud was dispensed in 365 mL aliquots into 16-ounce (oz.) non-perforated plastic pots with a surface area of 86.59 square centimeters (cm^2) leaving a headspace of 3 centimeters (cm) in each pot Mud was allowed to dry overnight prior to planting or transplanting. Rice seeds were planted in Sun Gro MetroMix® 306 planting mixture, which typically has a pH of 6.0 to 6.8 and an organic matter content of about 30 percent, in plastic plug trays. Seedlings at the second or third leaf stage of growth were transplanted into 840 mL of mud contained in 32-oz. non-perforated plastic pots with a surface area of 86.59 cm^2 4 days prior to herbicide application. The paddy was created by filling the headspace of the pots with 2.5 to 3 cm of water. When required to ensure good germination and healthy plants, a fungicide treatment and/or other chemical or physical treatment was applied. The plants were grown for 4-22 days in a greenhouse with an approximate 14 h photoperiod which was maintained at about 29° C during the day and 26° C. during the night. Nutrients were added as Osmocote® (19:6:12, N:P:K+ minor nutrients) at 2 g per 16-oz. pot and 4 g per 32-oz. pot. Water was added on a regular basis to maintain the paddy flood, and supplemental lighting was provided with overhead metal halide 1000-Watt lamps as necessary. The plants were employed for testing when they reached the first through fourth true leaf stage.
Treatments consisted of the acid or esters of 4-amino-3-chloro-5-fluoro-6-(4-chloro-2-fluoro-3-methoxy-phenyl)pyridine-2-carboxylic acid (compound A) each formulated as an SC (suspension concentrate) and various herbicidal components alone and in combination. Forms of compound A were applied on an acid equivalent basis.
Other herbicidal components were applied on an active ingredient basis and included photosystem II (PSII)-inhibits propanil formulated as […] bentazon-sodium formulated as Basagran®, and simetryne (technical grade material).
Treatment requirements for each compound or herbicidal component were calculated based upon the rates being tested, the concentration of active ingredient or acid equivalent in the formulation, an application volume of 2 mL per component per pot, and an application area of 86.59 cm^2 per pot.
For formulated compounds, a measured amount was placed in an individual 100 or 200 mL glass vial and was dissolved in a volume of 1.25% (v/v) Agri-Dex® crop oil concentrate to obtain application solutions.
For technical grade compounds, a weighed amount was placed in an individual 100 to 200 mL glass vial and was dissolved in a volume of acetone to obtain concentrated stock solutions. […] The concentrated stock solutions obtained were diluted with an equivalent volume of an aqueous mixture containing 2.5% (v/v) crop oil concentrate so that the final application solutions contained 1.25% (v/v) crop oil concentrate.
Applications were made by injecting with a pipetter appropriate amounts of the application solutions, individually and sequentially, into the aqueous layer of the paddy. Control plants were treated in the same manner with the solvent blank. Applications were made so that all treated plant material received the same concentrations of acetone and crop oil concentrate.
The treated plants and control plants were placed in a greenhouse as described above and water was added as needed to maintain a paddy flood. After approximately 3 weeks the condition of the test plants as compared with that of the untreated plants was determined visually and scored on a scale of 0 to 100 percent where 0 corresponds to no injury or growth inhibition and 100 corresponds to complete kill. […]

COc1c(Cl)ccc(-c2nc(C(=O)OCc3ccccc3)c(Cl)c(N)c2F)c1F [Compound A Benzyl Ester, benzyl ester of 4-amino-3-chloro-5-fluoro-6-(4-chloro-2-fluoro-3-methoxy-phenyl)pyridine-2-carboxylic acid]
Visual Weed Control (%) Obs (8 g ae/ha): 50%
Visual Weed Control (%) Obs (16 g ae/ha): 85%
Visual Weed Control (%) Obs (32 g ae/ha): 90%

From US8912121B2, “Herbicidal compositions comprising 4-amino-3-chloro-5-fluoro-6-(4-chloro-2-fluoro-3-methoxyphenyl)pyridine-2-carboxylic acid or a derivative thereof and certain PS II inhibitors” (Dow Agrosciences LLC, priority 2012, dated 2014)
